We go through one molecule from patent US5563121A, “Peptide linkage unit” (priority 1994, dated 1996).

The test has as its target T1, Synthetic HIV-1 proteinase (Human immunodeficiency virus type 1 group M subtype B, UniProt P03369).
T1 construct: Synthetic HIV-1 proteinase; made in house; host or cells: chemical synthesis (no expression host); gift of Dr. Stephen Kent, The Scripps Research Institute
The test is described as follows: HPLC assay of HIV-1 PR inhibition. Type of test: biochemical. The conditions noted are these: HIV substrate IV, pH 6.2, 25° C. As to the method:
Typical reactions were carried out at room temperature (25° C.) in 150 μl total volumes of 100 mM MES buffer, pH 6.2, containing 1 mM ethylenediaminetetra-acetic acid (EDTA) and 2 mM dithiothreitol (DTT) plus 0.1 percent (v/v) Triton X-100.
Synthetic HIV-1 proteinase [0.5 μg, obtained from Dr. Stephen Kent of The Scripps Research Institute; see Cell, 54:363-368 (July 29, 1988)] was first incubated in buffer with (or without) various concentrations of "inhibitor(s)" for 30 minutes at 25° C. The proteinase reaction was then initiated by the addition of HIV substrate IV (Bachem Bioscience Inc.) at fixed concentrations. HIV Substrate IV has the sequence
Lys-Ala-Arg-Val-Nle-p-NO2 Phe-Glu-Ala-Nle-NH2 (SEQ ID NO: 32).
At three appropriate times (normally 15, 30 and 45 minutes) the hydrolysis was stopped by adding a 40 μl aliquot from the reaction to 40 μl of a prepared quench solution. The quench solution was 1:4 acetonitrile:water (3 percent trifluoroacetic acid; TFA) and contained 150 μM m-toluic acid which served as an HPLC standard. […] Reaction progress was monitored by following the increasing absorbance (peak height) of the substrate IV cleavage product detected at […].

*1 amine or outer side, *2 acyl side, *3 side chain or, on linkers, in order; H or OH if unused. Where a SMILES comes first, the peptide text is derived from it. [ ]: non-standard residue; d: D form. X1 = O=C([C@@H]1CCCN1CP(=O)(O)C(Cc1ccccc1)N[*:1])[*:2]

In general, Ki refers to a measure of affinity in units of concentration, obtained from inhibition or displacement. For `CC[C@H](C)[C@H](NC(=O)[C@@H]1CCCN1CP(=O)(O)C(Cc1ccccc1)NC(=O)[C@H](CC(N)=O)NC(=O)[C@H](CC(C)C)NC(=O)[C@H](CO)NC(C)=O)C(=O)N[C@H](C(=O)OC)C(C)C` (stereo partly drawn) [Compound 6, CH3 C(O)-Ser-Leu-Asn-Phe.psi.[PO2^- CH2 NH^+ ]Pro-Ile-Val-OCH3] (Ac-SLN[X1]IV-OMe), the Ki is around 600 µM (one stereoisomer of Compound 6) and around 0.01 µM (the other (more active) isomer of Compound 6).
